Earlier results on 1 compound are cited in patent publication US20260024640A1, “SYSTEM AND METHOD I[…] COMPUTER FOR THE CONTROL OF […] THROUGH FUZZY CONTROL” (SmartTIVA Inc, priority 2022, published 2026).

Like-named read-outs stand apart in the source and are kept apart here.

The conditions of data set [1]: Schnider.
For data set [2] the following is noted: Marsh.
[3] abbreviates: General Model (LBM calculated by weight, age, gender).

Regarding `CC(C)c1cccc(C(C)C)c1O` [Propofol], in data set [1] (70 kg, male, height: 170 cm), the V1 is listed as 4.27 L, the k13 is 0.196 min⁻¹, the k21 was 0.067 min⁻¹ and the keo was 0.456 min⁻¹. Moreover, in data set [1] (setting [3]), the V1 is recorded as 4.27 L, the k13 was 0.196 min⁻¹ and the keo was 0.456 min⁻¹. Besides, in data set [2] (70 kg), the V1 is listed as 15.9 L, the k21 is 0.055 min⁻¹, the k31 is 0.0033 min⁻¹ and the keo was 0.26 min⁻¹. Also, in data set [2] (General Model), the V1 was 0.228 L/kg, the k21 was 0.055 min⁻¹, the k31 was 0.0033 min⁻¹ and the keo was 0.26 min⁻¹.
